Measurements taken from patent publication US9120812B2, “Pyrimidooxazocine derivatives as mTOR-inhibitors” (SANOFI, priority 2012, dated 2015).
Where two headings read alike, the source gives them in different places.

What was measured:
U87MG tumour cells = assay: Test of in vitro proliferation of U87MG tumour cells; format: cell-based; conditions: U87MG cells, 72 hours, read-out: U87 Cell Proliferation IC50
Protocol: Model 4: Test of in vitro Proliferation of U87MG Tumour Cells.
The cell growth is determined with the reagent CellTiter 96 AQueous One Solution Cell Proliferation Assay from Promega (Cat. No. G3581).

[1] = target: mTOR (human recombinant aa mTOR 1360-2549) (Homo sapiens (Human), UniProt P42345); assay: mTOR enzymatic test by TR-FRET (phosphorylation of GFP-4EBP1); format: biochemical
How it was run: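 After a 30 min room-temperature kinase reaction, EDTA (10 mM final) and Tb-labelled phospho-Thr46 antibody (2 nM final) were added and incubated 60 min. Energy transfer from Tb to phosphorylated GFP-4EBP1 was read at 340 nm excitation, emissions 490/520 nm. Values derive from the 520/490 fluorescence ratio.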

PI3Kα (p110α/p85α) = PI3Kα (p110α/p85α) (Homo sapiens (Human), UniProt P42336); assay: PI3Kα enzymatic test by measuring the consumption of ATP; format: biochemical
How it was run: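 ATP consumption read out by KinaseGlo luminescence after a 90 min reaction of 1.7 μg/ml PI3Kα (p110α/p85α) with 2 μM ATP and 50 μM PIP2, buffered at pH 7.5 (Tris, 10 mM MgCl2, 1 mM EGTA, 0.03% Chaps, 1 mM DTT). Threefold dilution series over ≥10 000-fold range yield IC50.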

[2] = Homo sapiens, U-87 MG, read-out: U87 Akt-pS473 % Inhibition or IC50, nM (IC50), U87MG cells

Sequence of mTOR (human recombinant aa mTOR 1360-2549) (P42345 1360-2549): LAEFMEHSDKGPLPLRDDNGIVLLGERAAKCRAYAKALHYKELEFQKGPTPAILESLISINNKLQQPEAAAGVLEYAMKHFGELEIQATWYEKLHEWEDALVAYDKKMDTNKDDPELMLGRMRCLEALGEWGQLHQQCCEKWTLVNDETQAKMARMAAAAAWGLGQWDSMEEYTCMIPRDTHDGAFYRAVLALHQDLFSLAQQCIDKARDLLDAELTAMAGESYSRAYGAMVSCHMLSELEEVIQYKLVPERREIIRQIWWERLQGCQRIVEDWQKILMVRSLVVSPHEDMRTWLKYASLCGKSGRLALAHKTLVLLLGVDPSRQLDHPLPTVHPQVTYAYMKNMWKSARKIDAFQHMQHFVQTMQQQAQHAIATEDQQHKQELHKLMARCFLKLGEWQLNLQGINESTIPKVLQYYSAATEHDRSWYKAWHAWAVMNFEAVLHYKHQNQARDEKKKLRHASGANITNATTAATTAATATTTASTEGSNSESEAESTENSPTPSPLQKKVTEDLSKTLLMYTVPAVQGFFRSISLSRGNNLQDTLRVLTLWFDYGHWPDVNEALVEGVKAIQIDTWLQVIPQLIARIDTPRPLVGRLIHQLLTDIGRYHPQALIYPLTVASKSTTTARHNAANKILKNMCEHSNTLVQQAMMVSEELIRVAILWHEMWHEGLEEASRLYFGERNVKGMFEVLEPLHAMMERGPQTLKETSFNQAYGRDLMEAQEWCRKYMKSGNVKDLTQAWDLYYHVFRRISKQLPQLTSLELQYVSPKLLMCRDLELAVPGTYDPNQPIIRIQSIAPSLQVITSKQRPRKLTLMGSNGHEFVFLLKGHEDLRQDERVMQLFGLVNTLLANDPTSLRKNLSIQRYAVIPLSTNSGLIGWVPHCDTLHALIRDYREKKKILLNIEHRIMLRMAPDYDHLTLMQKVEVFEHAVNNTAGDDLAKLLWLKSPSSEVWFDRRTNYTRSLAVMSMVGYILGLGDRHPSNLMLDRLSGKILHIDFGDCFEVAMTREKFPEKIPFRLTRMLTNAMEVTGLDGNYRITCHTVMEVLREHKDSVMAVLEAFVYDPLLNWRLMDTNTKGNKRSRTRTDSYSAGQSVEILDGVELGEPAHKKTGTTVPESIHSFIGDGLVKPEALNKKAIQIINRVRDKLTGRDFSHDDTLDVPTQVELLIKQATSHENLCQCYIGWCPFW
Sequence of PI3Kα (p110α/p85α) (P42336 whole entry): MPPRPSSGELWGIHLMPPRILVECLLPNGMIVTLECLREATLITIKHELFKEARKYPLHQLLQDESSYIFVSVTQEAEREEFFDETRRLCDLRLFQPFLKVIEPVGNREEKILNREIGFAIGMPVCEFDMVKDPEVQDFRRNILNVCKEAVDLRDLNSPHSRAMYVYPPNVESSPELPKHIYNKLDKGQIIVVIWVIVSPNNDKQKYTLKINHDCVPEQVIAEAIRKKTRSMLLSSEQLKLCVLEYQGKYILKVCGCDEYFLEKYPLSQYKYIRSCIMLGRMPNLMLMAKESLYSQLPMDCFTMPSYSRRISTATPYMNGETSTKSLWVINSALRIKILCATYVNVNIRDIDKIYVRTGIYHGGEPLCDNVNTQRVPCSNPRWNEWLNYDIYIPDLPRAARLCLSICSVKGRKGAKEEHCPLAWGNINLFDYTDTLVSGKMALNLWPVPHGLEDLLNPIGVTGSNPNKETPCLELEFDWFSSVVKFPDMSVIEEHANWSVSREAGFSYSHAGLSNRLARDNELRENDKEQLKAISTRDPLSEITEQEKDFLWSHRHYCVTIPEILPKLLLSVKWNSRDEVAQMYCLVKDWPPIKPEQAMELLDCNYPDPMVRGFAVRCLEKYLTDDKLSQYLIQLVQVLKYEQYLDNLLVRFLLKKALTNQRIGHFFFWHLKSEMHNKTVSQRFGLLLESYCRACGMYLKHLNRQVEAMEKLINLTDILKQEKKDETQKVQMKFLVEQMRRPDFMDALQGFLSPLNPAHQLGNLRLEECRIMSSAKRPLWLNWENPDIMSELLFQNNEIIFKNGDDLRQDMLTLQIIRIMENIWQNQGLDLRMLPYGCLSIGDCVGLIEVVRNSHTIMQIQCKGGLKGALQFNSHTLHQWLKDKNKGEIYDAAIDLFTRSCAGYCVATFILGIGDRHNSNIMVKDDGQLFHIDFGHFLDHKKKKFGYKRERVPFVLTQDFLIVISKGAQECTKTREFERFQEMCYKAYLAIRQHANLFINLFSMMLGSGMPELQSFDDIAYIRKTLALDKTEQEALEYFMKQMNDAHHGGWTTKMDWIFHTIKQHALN
Sequence of PI3Kα (p110α/p85α) (P27986 whole entry partner): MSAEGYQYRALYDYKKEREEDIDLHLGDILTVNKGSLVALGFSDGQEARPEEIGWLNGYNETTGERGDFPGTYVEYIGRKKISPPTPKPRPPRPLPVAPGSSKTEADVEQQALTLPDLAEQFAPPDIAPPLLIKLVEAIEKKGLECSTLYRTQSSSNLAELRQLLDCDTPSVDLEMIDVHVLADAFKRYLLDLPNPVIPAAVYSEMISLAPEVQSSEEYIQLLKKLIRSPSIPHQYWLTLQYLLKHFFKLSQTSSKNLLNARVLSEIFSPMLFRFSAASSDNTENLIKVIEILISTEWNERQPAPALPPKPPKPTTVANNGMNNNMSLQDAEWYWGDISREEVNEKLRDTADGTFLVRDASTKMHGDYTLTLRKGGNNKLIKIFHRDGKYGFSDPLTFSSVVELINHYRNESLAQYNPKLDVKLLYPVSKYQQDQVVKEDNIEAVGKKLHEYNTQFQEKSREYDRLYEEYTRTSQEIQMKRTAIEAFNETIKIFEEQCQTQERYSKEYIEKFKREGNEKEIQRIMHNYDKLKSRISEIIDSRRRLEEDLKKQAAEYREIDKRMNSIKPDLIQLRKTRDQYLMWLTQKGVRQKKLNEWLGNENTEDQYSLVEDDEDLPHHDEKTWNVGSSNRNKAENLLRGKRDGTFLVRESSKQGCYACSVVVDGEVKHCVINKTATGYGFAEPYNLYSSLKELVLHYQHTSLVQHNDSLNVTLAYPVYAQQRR

| SMILES | IC50 (Akt-pS473 in U87MG cells; [2]) | IC50 (U87MG tumour cells; Homo sapiens, U-87 MG, 72 h) | IC50 [1] | PI3Ka IC50 (PI3Kα (p110α/p85α)) | IC50 (Akt-pS473 in U87MG cells; read-out: U87 Akt-pS473 % Inhibition or IC50, nM (IC50), U87MG cells) | IC50 (U87MG tumour cells) |
| --- | --- | --- | --- | --- | --- | --- |
| CCNC(=O)Nc1ccc(-c2nc(N3CC4CCC(C3)O4)nc3c2C(=O)N(CCC(=O)O)CC(C)(C)O3)cc1 [Example 7, 3-[4-[4-(3-Ethylureido)phenyl]-8,8-dimethyl-2-(8-oxa-3-azabicyclo[3.2.1]oct-3-yl)-5-oxo-7,8-dihydro-5H-9-oxa-1,3,6-triazabenzocyclohepten-6-yl]propionic acid] | > 3000 nM | > 10000 nM | 17 nM | >10000 nM |  |  |
| Cc1cc(NC(=O)Nc2ccc(-c3nc(N4CC5CCC(C4)O5)nc4c3C(=O)N(C3CCOCC3)CC(C)(C)O4)cc2)no1 [Example 15, 1-{4-[8,8-dimethyl-2-(8-oxa-3-azabicyclo[3.2.1]oct-3-yl)-5-oxo-6-(tetrahydropyran-4-yl)-5,6,7,8-tetrahydro-9-oxa-1,3,6-triazabenzocyclohepten-4-yl]phenyl}-3-(5-methylisoxazol-3-yl)urea] | 76 nM | 218 nM | 12 nM | 5300 nM |  |  |
| CCN1CC(C)(C)Oc2nc(N3CCOC[C@@H]3C)nc(-c3ccc(NC(=O)Nc4ccc(N5CCN(C)CC5)cn4)cc3)c2C1=O [Example 218, 1-{4-[6-Ethyl-8,8-dimethyl-2-((S)-3-methylmorpholin-4-yl)-5-oxo-5,6,7,8-tetrahydro-9-oxa-1,3,6-triazabenzocyclohepten-4-yl]phenyl}-3-[5-(4-methylpiperazin-1-yl)pyridin-2-yl]urea] | 17 nM | 211 nM | 58 nM | 1060 nM |  |  |
| CCN1CC(C)(C)Oc2nc(N3CC4CCC(C3)O4)nc(-c3ccc(NC(=O)Nc4ccnc(C)c4)c(F)c3)c2C1=O [Example 56, 1-{4-[6-Ethyl-8,8-dimethyl-2-(8-oxa-3-azabicyclo[3.2.1]oct-3-yl)-5-oxo-5,6,7,8-tetrahydro-9-oxa-1,3,6-triazabenzocyclohepten-4-yl]-2-fluorophenyl}-3-(2-methylpyridin-4-yl)urea] | 26 nM | 57 nM | 41 nM | 3230 nM |  |  |
| CNC(=O)Nc1ccc(-c2nc(N3C4CCC3COC4)nc3c2C(=O)N(C)CC(C)(C)O3)cc1F [Example 46, 1-{2-Fluoro-4-[6,8,8-trimethyl-2-(3-oxa-8-azabicyclo[3.2.1]oct-8-yl)-5-oxo-5,6,7,8-tetrahydro-9-oxa-1,3,6-triazabenzocyclohepten-4-yl]phenyl}-3-methylurea] | 24 nM | 90 nM | 26 nM | 8880 nM |  |  |
| COc1ccc(NC(=O)Nc2ccc(-c3nc(N4CC5CCC(C4)O5)nc4c3C(=O)N(C3CCOCC3)CC(C)(C)O4)cc2)cn1 [Example 148, 1-{4-[8,8-Dimethyl-2-(8-oxa-3-azabicyclo[3.2.1]oct-3-yl)-5-oxo-6-(tetrahydropyran-4-yl)-5,6,7,8-tetrahydro-9-oxa-1,3,6-triazabenzocyclohepten-4-yl]phenyl}-3-(6-methoxypyridin-3-yl)urea] | 21 nM | 490 nM | 68 nM | >10000 nM |  |  |
| CCN1CC(C)(C)Oc2nc(N3CC4CCC(C3)O4)nc(-c3ccc(NC(=O)Nc4ccnc5[nH]ccc45)c(F)c3)c2C1=O [Example 86, 1-{4-[6-Ethyl-8,8-dimethyl-2-(8-oxa-3-azabicyclo[3.2.1]oct-3-yl)-5-oxo-5,6,7,8-tetrahydro-9-oxa-1,3,6-triazabenzocyclohepten-4-yl]-2-fluorophenyl}-3-(1H-pyrrolo[2,3-b]pyridin-4-yl)urea] | 144 nM | 490 nM | 377 nM | >10000 nM |  |  |
| CCN1CC(C)(C)Oc2nc(N3CC4CCC(C3)O4)nc(-c3ccc(NC(=O)Nc4ccc(C(=O)N(C)CCN(C)C)cc4)cc3)c2C1=O [Example 176, N-(2-Dimethylaminoethyl)-4-(3-{4-[6-ethyl-8,8-dimethyl-2-(8-oxa-3-azabicyclo[3.2.1]oct-3-yl)-5-oxo-5,6,7,8-tetrahydro-9-oxa-1,3,6-triazabenzocyclohepten-4-yl]phenyl}ureido)-N-methylbenzamide] | 314 nM | 83 nM | 69 nM | 100 nM |  |  |
| CCNC(=O)Nc1ccc(-c2nc(N3CCOCC3)nc3c2C(=O)N(CC)CC(C)(C)O3)cc1 [Example 96, 1-Ethyl-3-[4-(6-ethyl-8,8-dimethyl-2-morpholin-4-yl-5-oxo-5,6,7,8-tetrahydro-9-oxa-1,3,6-triazabenzocyclohepten-4-yl)phenyl]urea] | 107 nM | 1470 nM | 72 nM | 1444 nM |  |  |
| CCN1CC(C)(C)Oc2nc(N3CCOC[C@@H]3C)nc(-c3ccc(NC(=O)Nc4ccn(C)n4)c(F)c3)c2C1=O [Example 166, 1-{4-[6-Ethyl-8,8-dimethyl-2-((S)-3-methylmorpholin-4-yl)-5-oxo-5,6,7,8-tetrahydro-9-oxa-1,3,6-triazabenzocyclohepten-4-yl]-2-fluorophenyl}-3-(1-methyl-1H-pyrazol-3-yl)urea] | 278 nM | 1270 nM | 86 nM | 2300 nM |  |  |
| CCN1CC(C)(C)Oc2nc(N3CC4CCC(C3)O4)nc(-c3ccc(NC(=O)Nc4cccnc4)cc3)c2C1=O [Example 112, 1-{4-[6-Ethyl-8,8-dimethyl-2-(8-oxa-3-azabicyclo[3.2.1]oct-3-yl)-5-oxo-5,6,7,8-tetrahydro-9-oxa-1,3,6-triazabenzocyclohepten-4-yl]phenyl}-3-pyridin-3-ylurea] | 24 nM | 154 nM | 20 nM | 2660 nM |  |  |
| CCN1CC(C)(C)Oc2nc(N3CC4CCC(C3)O4)nc(-c3ccc(NC(=O)Nc4ccc(OC)nc4)c(F)c3)c2C1=O [Example 240, 1-{4-[6-Ethyl-8,8-dimethyl-2-(8-oxa-3-azabicyclo[3.2.1]oct-3-yl)-5-oxo-5,6,7,8-tetrahydro-9-oxa-1,3,6-triazabenzocyclohepten-4-yl]-2-fluorophenyl}-3-(6-methoxypyridin-3-yl)urea] |  |  | 61 nM | >10000 nM | 29 nM | 75 nM |
| CCN1CC(C)(C)Oc2nc(N3CC4CCC(C3)O4)nc(-c3ccc(Nc4nnc(-c5ccc(OC)nc5)[nH]4)c(F)c3)c2C1=O [Example 183, 6-Ethyl-4-{3-fluoro-4-[5-(6-methoxypyridin-3-yl)-4H-[1,2,4]triazol-3-ylamino]phenyl}-8,8-dimethyl-2-(8-oxa-3-azabicyclo[3.2.1]oct-3-yl)-7,8-dihydro-6H-9-oxa-1,3,6-triazabenzocyclohepten-5-one] | 165 nM | 752 nM | 128 nM | >10000 nM |  |  |
| CCN1CC(C)(C)Oc2nc(N3CC4CCC(C3)O4)nc(-c3ccc(NC(=O)Nc4ccncc4)c(F)c3)c2C1=O [Example 52, 1-{4-[6-Ethyl-8,8-dimethyl-2-(8-oxa-3-azabicyclo[3.2.1]oct-3-yl)-5-oxo-5,6,7,8-tetrahydro-9-oxa-1,3,6-triazabenzocyclohepten-4-yl]-2-fluorophenyl}-3-pyridin-4-ylurea] | 16 nM | 29 nM | 18 nM | 1710 nM |  |  |
| C[C@H]1COCCN1c1nc2c(c(-c3ccc(NC(=O)Nc4ccon4)c(F)c3)n1)C(=O)N(C1CCOCC1)CC(C)(C)O2 [Example 156, 1-{4-[8,8-Dimethyl-2-((S)-3-methylmorpholin-4-yl)-5-oxo-6-(tetrahydropyran-4-yl)-5,6,7,8-tetrahydro-9-oxa-1,3,6-triazabenzocyclohepten-4-yl]-2-fluorophenyl}-3-isoxazol-3-ylurea] | 92 nM | 395 nM | 27 nM | 1140 nM |  |  |
| CN1CC(C)(C)Oc2nc(N3C4CCC3COC4)nc(-c3ccc(NC(=O)Nc4ccccn4)cc3)c2C1=O [Example 41, 1-Pyridin-2-yl-3-{4-[6,8,8-trimethyl-2-(3-oxa-8-azabicyclo[3.2.1]oct-8-yl)-5-oxo-5,6,7,8-tetrahydro-9-oxa-1,3,6-triazabenzocyclohepten-4-yl]phenyl}urea] | 31 nM | 122 nM | 35 nM | >10000 nM |  |  |
| CCN1CC(C)(C)Oc2nc(N3CC4CCC(C3)O4)nc(-c3ccc(NC(=O)Nc4ccc(N5CCS(=O)(=O)CC5)cc4)c(F)c3)c2C1=O [Example 237, 1-[4-(1,1-Dioxo-1λ6-thiomorpholin-4-yl)phenyl]-3-{4-[6-ethyl-8,8-dimethyl-2-(8-oxa-3-azabicyclo[3.2.1]oct-3-yl)-5-oxo-5,6,7,8-tetrahydro-9-oxa-1,3,6-triazabenzocyclohepten-4-yl]-2-fluorophenyl}urea] | 80 nM | 49 nM | 39 nM | >7200 nM |  |  |
| CCN1CC(C)(C)Oc2nc(N3CC4CCC(C3)O4)nc(-c3ccc(NC(=O)Nc4cccc(OC(F)F)c4)cc3)c2C1=O [Example 18, 1-(3-difluoromethoxyphenyl)-3-{4-[6-ethyl-8,8-dimethyl-2-(8-oxa-3-azabicyclo[3.2.1]oct-3-yl)-5-oxo-5,6,7,8-tetrahydro-9-oxa-1,3,6-triazabenzocyclohepten-4-yl]phenyl}urea] | 29 nM | 63 nM | 25 nM | 7570 nM |  |  |
